How the values were obtained:
RARα [1] = target: T1, RARα (Homo sapiens (Human), UniProt P10276); experiment: Transactivation assay, human RARα; type: cell-based; conditions: Table 1; all human data
Protocol: (§1) Transcriptional transactivation assays were performed with gal4 fusion receptor constructs, created using each of the RAR ligand binding domains of either mouse or human, co-transfected with the pFR-luc (Stratagene) reporter construct in COS-7 cells.
(§2) Briefly, on day 1, 96 well plates were seeded with 8000 cells per well then left to recover overnight. On day 2, the cells were co-transfected with 100 ng of reporter plasmid and 10 ng of the appropriate receptor plasmid per well using lipofectamine (Invitrogen). On day 3, the lipofectamine containing media was replaced by a DMEM without phenol red, followed by the addition of test compound dissolved in 1 μL of DMSO to each well's 100 μL total volume. Finally, on day 4, the cells were lysed and their luciferase substrate was provided by the BrightGlo™ reagent (Promega), the plates were then read on the MicroBeta TriLux™ (Perkin Elmer).
(§3) Data for test compounds are quoted as EC50 values. Where replicate data has been generated, the data are quoted as the mean EC50 from the separate experiments.
Target sequence in this assay (P10276 183-417): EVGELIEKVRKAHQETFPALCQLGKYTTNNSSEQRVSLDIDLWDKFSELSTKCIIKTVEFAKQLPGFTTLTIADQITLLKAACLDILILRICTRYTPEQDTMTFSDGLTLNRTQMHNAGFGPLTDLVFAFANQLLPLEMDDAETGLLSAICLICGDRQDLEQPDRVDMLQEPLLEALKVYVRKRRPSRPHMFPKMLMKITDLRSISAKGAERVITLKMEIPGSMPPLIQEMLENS

phospho-Akt = experiment: Western blot of cerebellar cultures for phospho-Akt; type: cell-based, rat; conditions: cerebellar cultures treated with 1 μM
RARγ [2] = target: T2, RARγ (Homo sapiens (Human), UniProt P13631); conditions: Bernard et al., 1992; Delescluse et al., 1991; cited from earlier work
Target sequence in this assay (P13631 whole entry, species assumed): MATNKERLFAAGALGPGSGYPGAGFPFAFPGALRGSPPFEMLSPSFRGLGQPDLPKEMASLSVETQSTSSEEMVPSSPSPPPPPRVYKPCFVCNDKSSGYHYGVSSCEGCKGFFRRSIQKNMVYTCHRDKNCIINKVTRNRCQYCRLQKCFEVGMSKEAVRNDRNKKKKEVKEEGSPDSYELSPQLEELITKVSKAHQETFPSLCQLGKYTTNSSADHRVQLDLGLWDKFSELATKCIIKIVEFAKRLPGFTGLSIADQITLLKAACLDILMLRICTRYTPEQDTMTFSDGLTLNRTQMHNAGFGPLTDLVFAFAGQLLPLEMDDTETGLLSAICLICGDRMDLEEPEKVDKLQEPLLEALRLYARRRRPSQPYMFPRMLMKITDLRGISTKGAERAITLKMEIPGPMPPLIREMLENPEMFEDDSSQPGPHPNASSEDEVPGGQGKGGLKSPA

cortex explants = experiment: Neurite outgrowth from cultured cortex of treated lesioned animals; type: cell-based, rat; conditions: cortex from lesioned rats treated in vivo
Protocol: When pieces of cortex from these RARβ agonist treated animals were cultured, neurite outgrowth was observed, in contrast to cortex from control lesioned animals.
(§4) Cerebellar neurons isolated from post-natal day 3 rat pups were cultured over monolayers of parental 3T3 cells in control media, or media supplemented with a recombinant MAG-Fc chimera (R&D Systems) used at a final concentration of 20 μg/mL MAG-Fc. The monolayers were established for 24 hours prior to addition of the neurons and the co-cultures were maintained for approximately 21 hours. Following careful fixation with 4% paraformaldehyde, the neurons were immuno-stained with a GAP-43 antibody (from Graham Wilkin, Imperial College), dilution of 1:500, and the mean length of the longest neurite per cell was measured for approximately 120-150 neurons as previously described (see, e.g., Williams et al., 2005). DRG and cortical explants were obtained from adult rats, they were cultured in cellogen as previously described (see, e.g., Corcoran and Maden, 1999). Three explants per treatment were used. Neurite outgrowth was assessed 3 days later by immunohistochemistry with NF200 (Sigma, dilution of 1:200). The average lengths of the neurites were measured using image pro plus software. Media consisted of DMEM-F12 (Invitrogen) containing N2 (Invitrogen) supplemented with glucose (33 mM) and glutamine (2 mM).

RARα [3] = target: T1, RARα; conditions: Bernard et al., 1992; Delescluse et al., 1991; cited from earlier work
Target sequence in this assay (P10276 whole entry, species assumed, the tested form may be a part): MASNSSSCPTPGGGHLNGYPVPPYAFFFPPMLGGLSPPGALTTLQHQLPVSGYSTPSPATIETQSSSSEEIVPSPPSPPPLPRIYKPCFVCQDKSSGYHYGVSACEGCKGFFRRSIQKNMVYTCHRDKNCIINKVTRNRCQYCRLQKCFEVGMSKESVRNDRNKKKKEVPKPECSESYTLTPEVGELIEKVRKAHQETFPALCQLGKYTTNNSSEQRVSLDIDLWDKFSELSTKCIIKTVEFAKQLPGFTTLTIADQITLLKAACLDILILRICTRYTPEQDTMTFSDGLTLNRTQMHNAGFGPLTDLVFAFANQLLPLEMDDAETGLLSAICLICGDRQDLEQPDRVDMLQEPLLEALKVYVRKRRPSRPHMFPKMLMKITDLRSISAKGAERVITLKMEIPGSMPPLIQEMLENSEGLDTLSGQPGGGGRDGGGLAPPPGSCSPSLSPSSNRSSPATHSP

RARγ [4] = target: T2, RARγ; experiment: Transactivation assay, human RARγ; type: cell-based; conditions: Table 1; all human data
Protocol: as §1, §2, §3
Target sequence in this assay (P13631 185-419): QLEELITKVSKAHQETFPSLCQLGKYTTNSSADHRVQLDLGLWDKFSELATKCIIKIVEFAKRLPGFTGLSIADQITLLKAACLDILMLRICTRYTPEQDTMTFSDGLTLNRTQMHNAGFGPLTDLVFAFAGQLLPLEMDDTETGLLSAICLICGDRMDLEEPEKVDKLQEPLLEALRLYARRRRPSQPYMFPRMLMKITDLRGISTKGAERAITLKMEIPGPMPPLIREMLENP

[5] = system: rats with severed sensory roots; experiment: Severed and re-implanted sensory roots (DRG, left forelimb) in rats; sticky tape tests; type: in vivo; conditions: rat, 1 mg/kg two days after lesion, then three times a week
Protocol: In another example of nerve injury, the four sensory roots from each of four DRG at the level of the left forelimb were severed and re-implanted into the spinal cord.
FIGS. 2A and 2B show two graphs of the time taken for rats to sense sticky tape (FIG. 2A) and to remove sticky tape (FIG. 2B) that is placed on its injured forepaw, as a function of the number of weeks after injury. Rats were treated with 1 mg/kg of the test compound or vehicle two days after lesion, and then three times a week for the period of the experiment. Error bars show SEM. ***P<0.001, students t test, n=3-4 rats for each treatment group. At weeks 3, 4, and 5, there was significant difference between the rats treated with RARβ agonist as compared to rats treated with other retinoid agonists and vehicle.

[6] = system: rats with crushed corticospinal tract (CST); experiment: Corticospinal tract (CST) crush at C4 in rats, i.c.v. treatment; tracing and behavioural tests; type: in vivo; conditions: rat
Protocol: FIGS. 1A and 1B show two graphs of the number of rat footslips as a function of the number of weeks after lesion, for grid task (FIG. 1A) and beam task (FIG. 1B).
All animal experiments were carried out under UK home office regulations. Dorsal column lesions were performed on adult male rats as previously described (see, e.g., Bradbury et al., 2002). […] The pumps were placed subcutaneously and connected to a brain infusion catheter (Alzet™), which was inserted into the lateral ventricle (Bregma coordinates: rostrocaudal: −0.8 mm, mediolateral: −1.5 mm and dorsoventral: −4.5 mm). […] The dose was based previous in vivo studies on activation of RARα and RARβ signalling in the adult rat brain (see, e.g., Goncalves et al., 2009). Animals which underwent behavioural studies and subsequent tracing (n=6 per treatment) were kept for six weeks before being sacrificed with a lethal injection of pentobarbital and transcardially perfused with 4% PFA. Dissected tissue (cervical and lumbar spinal cord) was processed for immunofluoresence.
Descendent corticospinal tract axons were anterogradely traced after the dorsal column crush was performed by injected BDA (10% in PBS, Mw10K from Molecular Probes) into the motor cortex as previously described (see, e.g., Yip et al., 2006). Six injections were done in the right cortex (0.5 μL of BDA/injection point). Animals (n=6 per treatment) were perfused and the spinal cord was transferred to PBS (plus 0.1% sodium azide) and embedded in gelatin (10%, 300 bloom; Sigma, Poole, UK). Gelatin blocks were hardened in 4% paraformaldehyde, and 40 μm free-floating serial transverse sections were cut on a vibratome (Leica, Nussloch, Germany) and collected in 24-well plates containing PBS (plus 0.1% sodium azide).
BDA was detected using the tyramide amplification kit (Perkin-Elmer) coupled with extra-avidin-FITC (Amersham Pharmacia Biotech, UK, 1:500). All BDA-labelled fibres observed within a 1-mm square grid were counted at measured intervals from 5 mm above to 5 mm below the lesion site by an experimenter, blinded to treatment.
CST neurons were labelled by retrograde tracing injecting 2 μL of 5% Fluorogold (FG, Molecular Probes) 2 mm deep into the cervical spinal cord (C3-C4) at a rate of 0.5 μL/minute (n=3 rats per group). In sham animals, FG was injected 0.5 mm bilateral to the medial line of spinal cord (1 μL per side), and in lesioned animals FG (2 μL) was injected into the injury. After 14 days, the cortices were fixed for 2 hours in 4% paraformaldehyde (PFA), embedded in OCT compound and stored frozen. Sagittal sections (12 μm) were cut and 4 sequential slides containing 2 sections from lateral 3.4-3.9 mm were taken for analysis (see, e.g., Paxinos and Watson, 2002).
Immunohistochemistry was carried out using anti-rabbit phospho-Akt (Cell Signalling technology, dilution of 1:100). Secondary antibody used was anti-rabbit Cy3 conjugated (Jackson, used at 1:1000). Images were captured at 100× magnification using a Roperscientific digital camera.
The behavioural tests were carried out as previously described (see, e.g., Bradbury et al., 2002). Rats (n=6 per treatment group) were first trained for two weeks before surgery to perform grid walk and beam walk; they were then tested by an observer blinded to the experimental treatment once a week for five weeks after lesion.

cerebellar neurons = experiment: Neurite outgrowth assay, cerebellar neurons in the presence of myelin/MAG; type: cell-based, rat
Protocol: as §4

RARβ = RARβ (Homo sapiens (Human), UniProt P10826); experiment: Transactivation assay, human RARβ; type: cell-based; conditions: Table 1; all human data; read-out: RARβ potency EC50
Chain of RARβ (P10826 183-417): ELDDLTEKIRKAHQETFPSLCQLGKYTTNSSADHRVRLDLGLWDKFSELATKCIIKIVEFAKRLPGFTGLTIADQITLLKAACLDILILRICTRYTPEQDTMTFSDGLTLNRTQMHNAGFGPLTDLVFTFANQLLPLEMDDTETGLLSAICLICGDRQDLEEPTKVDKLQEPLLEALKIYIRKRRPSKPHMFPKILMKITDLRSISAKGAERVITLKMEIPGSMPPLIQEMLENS
Protocol: as §1, §2, §3

[7] = i.c.v. 180 ng/kg/day for 14 days

Selectivity over RARα (RARα [1]): 11-fold
Selectivity over RARγ (RARγ [4]): 1.9-fold
EC50 (RARβ): 0.83 nM
SMILES: COc1ccc(-c2ccc3cc(C(=O)O)ccc3c2)cc1C1(C)CCCCC1 [CD2019, 6-(4-methoxy-3-(1-methylcyclohexyl)phenyl)-2-naphthalenecarboxylic acid]
Increase in neuronal phospho-Akt (not total Akt) compared to control cultures (phospho-Akt): 4 fold
Selectivity RARβ over RARγ (RARγ [2]): 12 fold
Axon/neurite outgrowth from cultured adult cortex of treated animals (cortex explants): did grow
Selectivity RARβ over RARα (RARα [3]): 5 fold
Behavioural tests after 5 weeks (severed sensory roots) [5]: performed as well as non-lesioned animals
Phospho AKT in the injured CST neurons in vivo [6]: induced
BDA labelled CST axons crossing the lesion site ([6]; after 5 weeks): many axons were observed crossing the injury site
RARβ2 expression in CST neuronal cell bodies ([6]; applied to the lateral ventricle for 2 weeks): upregulation of RARβ 2
Behavioural tests after 5 weeks (CST lesion) ([6]; grid walk and beam walk): performed as well as non-lesioned animals
Functional recovery of the forelimb in beam task (footslips), time of recovery [6, 7]: 2 weeks post lesion
Functional recovery of the forelimb in grid task (footslips), time of recovery [6, 7]: 4 weeks post lesion
Neurite outgrowth of cerebellar neurons grown in the presence of myelin (cerebellar neurons): causes the outgrowth of neurites

From patent publication US10752616B2, “Bicycloheteroaryl-heteroaryl-benzoic acid compounds as retinoic acid receptor beta (RARβ) agonists” (King's College London, priority 2014, dated 2020)
